In patent US20070193894A1, “Container for constituting a formulation in liquid form” (IDD-EAL MANUFACTURING COMPANY LIMITED, priority 2004, published 2007):

Assays:
[1] = Acetaminophen formulation blends tested in different volumes of water and containers; type: physicochemical; settings: conclusion of Example 13
Protocol: Blends of the above components were tested in three different volumes df water: 20 ml, 40 ml and 80 ml in different containers.
In the case of the second formulation a single volume (20 ml) in two different containers were investigated, namely a small bottle and a sampling container with cap.

[2] = Ibuprofen formulation test: behaviour in water; type: physicochemical; settings: conclusion of Example 14
Protocol: Two volumes of water were tested, namely 20 ml and 40 ml in two different containers, namely a small bottle and a beaker. One volume of water was tested, namely 20 ml, and a single container, namely a small bottle. In the case of the above two formulations, the behaviour of ibuprofen in water was tested and the generation of bubbles was optimised by increasing the quantity of citric acid, sodium bicarbonate and potassium hydrogen carbonate.

Row | Structure (SMILES) | remaining in suspension in water [1] | stability in water [1] | remaining in suspension in water [2] | stability in water [2]
1 | CC(=O)Nc1ccc(O)cc1 [acetaminophen, Acetaminophen] | does not remain in suspension | not stable in water |  | 
2 | CC(C)Cc1ccc(C(C)C(=O)O)cc1 (stereo not drawn) [ibuprofen, 4-Isobutyl-Alpha-Methylphenylacetic Acid (Ibuprofen)] |  |  | does not remain in suspension | not stable in water
